Data on twelve molecules can be found in patent US3962446A, “Analgesic compositions containing 2-cyanoalkylbenzomorphan derivatives and salts thereof” (priority 1971, dated 1976).

The nature of data set [1]: Abstinence syndrome (bodyweight decrease) on the day after drug withdrawal following 4 weeks of subcutaneous dosing. In kind it is in vivo, male rats of Wistar strain. Set-up: key: +++: severe decrease (about 5% decrease); ++: moderate decrease; +: mild decrease; -: no decrease. The settings on record: male Wistar rats, 20 mg/kg/day for 4 weeks, subcutaneous twice a day. The procedure:
Compound for 4 weeks) syndrome
Note: Groups of male rats of Wistar strain (bodyweight, 150 g), each grou
consisting of 20 male rats, were subcutaneously given the test compound
twice a day for 4 consecutive weeks. On the next day after drug
withdrawal, the bodyweight was measured. The symbols have the following
meanings: +++, severe decrease (about 5% decrease); ++, moderate decrease
+, mild decrease; -, no decrease. The marked decrease is taken as an […]

The nature of data set [2]: Long term animal tests for addiction / physical dependency (daily oral or subcutaneous administration for over one month). The format is in vivo. The conditions noted are these: rats, orally or subcutaneously every day for over one month. An excerpt:
On account of this addiction liability, these analgesics are severely restricted in a therapeutic use.

Data set [3] can be described thus: Subcutaneous writhing test (antagonism of the syndrome produced by intraperitoneal acetic acid). The conditions noted are these: Mus musculus, sc. The format is in vivo, mice. The procedure:
[…]. Note: The test was based on the specific antagonism of the test compound to the typical syndrome produced by intraperitoneal injection of 0.6% aqueous acetic acid. The syndrome was characterized by intermittent contractions of the abdomen, twisting and turning of the trunk and extension of the hind legs. A group of 5 mice was used for each dose level. The test compound was administered subcutaneously 20 minutes before the injection of acetic acid. […] The ED50 value was calculated according to the Litchfeld-Wilcoxon's method.
A general note: Writhing tests count abdominal constrictions after an irritant is injected.

The conditions of data set [4]: cited from earlier work.
The mark [5] stands for this setting: mice, subcutaneous, 20 minutes before 0.6% acetic acid i.p., Litchfeld-Wilcoxon's method, read-out: ED50.

Structures are written as SMILES. Where two headings read alike, the source gives them in different places.

For `CC12CCN(CCC#N)C(Cc3ccccc31)C2` (stereo not drawn) [2-(β-Cyanoethyl)-5-methyl-6,7-benzomorphan], the Abstinence syndrome result in data set [1] is “-”.
The ED50 is the dose that gives a 50% effect, or the effect in half of the subjects. Consider `CC(=O)Oc1ccc2c(c1)C1(C)CCN(CCC#N)C(C2)C1C` (stereo not drawn) [2'-Acetoxy-2-(β-cyanoethyl)-5,9-dimethyl-6,7-benzomorphan], for which, in data set [2], the “addiction / physical dependency” value is recorded as “do not show addiction in long term animal tests”. The ED50 in data set [3] (setting [5]) was found to be 0.5 mg/kg. Moreover, in data set [1], the Abstinence syndrome result is given as “-”.
In the case of `CC(C)=CCN1CCC2(C)c3cc(O)ccc3CC1C2C` (centres unmarked) [Pentazocine, 2'-hydroxy-2-(3"-methyl-2"-butenyl)-5,9-dimethyl-6,7-benzomorphan, reference compound], in data set [3] (setting [5]), the median effective dose (ED50) turned out to be 17.5 mg/kg.
As for `CC1C2Cc3ccc(O)cc3C1(C)CCN2CCCC#N` (centres unmarked) [2'-Hydroxy-2-(γ-cyanopropyl)-5,9-dimethyl-6,7-benzomorphan], the ED50 in data set [3] (setting [5]) was determined as 3 mg/kg. Further, in data set [1], the Abstinence syndrome result is given as “-”.
For `COc1ccc2c3c1O[C@H]1[C@@H](O)C=C[C@H]4[C@@H](C2)N(C)CC[C@@]341` [Methylmorphine, reference compound], the ED50 in data set [3] (setting [5]) was 14 mg/kg.
As to `CCC1C2Cc3ccc(O)cc3C1(C)CCN2CCCC#N` (centres unmarked) [2'-Hydroxy-2-(γ-cyanopropyl)-5-methyl-9-ethyl-6,7-benzomorphan], the 50% effective dose (ED50) in data set [3] (setting [5]) is 1.5 mg/kg. Moreover, in data set [1], the Abstinence syndrome result is reported as “-”.
On to `CC1C2Cc3ccc(O)cc3C1(C)CCN2CCC#N` (stereo not drawn) [2'-Hydroxy-2-(β-cyanoethyl)-5,9-dimethyl-6,7-benzomorphan], for which, in data set [2], the “addiction / physical dependency” value was “do not show addiction in long term animal tests”. Moreover, the ED50 in data set [3] (setting [5]) was determined as 0.9 mg/kg. Moreover, in data set [1], the Abstinence syndrome result is “-”.
Taken in the same sequence, the figures for `CCC12CCN(CCCC#N)C(Cc3ccc(O)cc31)C2C` (centres unmarked) [2'-hydroxy-2-(γ-cyanopropyl)-5-ethyl-9-methyl-6,7-benzomorphan] were “do not show addiction in long term animal tests”, 0.19 mg/kg and “-”.
Molecule `CN1CC[C@]23c4c5ccc(O)c4O[C@H]2[C@@H](O)C=C[C@H]3[C@H]1C5` [Morphine, reference compound] displayed an ED50 in data set [3] of 1.4 mg/kg.
Consider `CC1C2Cc3ccc(O)cc3C1(C)CCN2C` (centres unmarked) [2'-Hydroxy-2,5,9-trimethyl-6,7-benzomorphan, reference compound], for which, in data set [3] (setting [5]), the 50% effective dose (ED50) came to 3.5 mg/kg. The addiction liability entry in data set [4] (prior art compounds) is given as “show an addiction liability”. Moreover, the analgesic activity result in data set [4] (prior art, U.S. Pat. No. 3,138,603) was “potent analgesic activity”. Moreover, the Abstinence syndrome entry in data set [1] is reported as “++”.
For `CC12CCN(CCC#N)C(Cc3ccc(O)cc31)C2` (stereo not drawn) [2'-Hydroxy-2-(β-cyanoethyl)-5-methyl-6,7-benzomorphan], the “addiction / physical dependency” value in data set [2] was “do not show addiction in long term animal tests”. Moreover, the median effective dose (ED50) in data set [3] (setting [5]) was found to be 2.9 mg/kg. Besides, the Abstinence syndrome entry in data set [1] is given as “-”.
For `CCC1C2Cc3ccc(O)cc3C1(CC)CCN2CCCC#N` (centres unmarked) [2'-hydroxy-2-(γ-cyanopropyl)-5,9-diethyl-6,7-benzomorphan], in data set [3] (setting [5]), the ED50 was 0.3 mg/kg. In addition, in data set [1], the Abstinence syndrome result is given as “-”.
